Tested on: Caenorhabditis elegans
Assay: C. elegans L1 nematicidal dose response in 96-well plates, 5 day visual score (Example 2; same procedure for Example 7, Table 3)
Type: in vivo
Parameters: key to 5 Day Visual Score V1 / 5 Day Visual Score V2 / 5 Day Visual Score V3 / 5 Day Visual Score V4 / 5 Day Visual Score V6 / 5 Day Visual Score V5 / Initial HTS Run Visual Score / Follow-up HTS Run Visual Score: Dead: only stiff L1s (no movement); Dead (L4): worms are dead, but at a later larval stage; majority of worms are L1 (based on size) worms move when plate is tapped; majority of worms are L2 (based on size); majority of worms are L3 (based on size); majority of worms are L4 (based on size); AD: majority of worms are adult; #AD: 5 adult worms or less; B!: sterile (0-25 progeny); B: low broodsize (25-100 progeny); ˜B: moderate broodsize (100-250 progeny); <: reduced broodsize (250-500 progeny); OK: no effect (˜1000+ progeny)
Settings: for 5 Day Visual Score V1 / 5 Day Visual Score V2 / 5 Day Visual Score V4 / 5 Day Visual Score V5 / 5 Day Visual Score V6 / 5 Day Visual Score V3: dose response; for 5 Day Visual Score V1: dilution V1, day 5; for 5 Day Visual Score V2: dilution V2, day 5; for 5 Day Visual Score V4: dilution V4, day 5; for 5 Day Visual Score V5: dilution V5, day 5; for 5 Day Visual Score V6: dilution V6, day 5; for 5 Day Visual Score V3: dilution V3, day 5
Outline: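 L1 larvae, 20 per well in NGM with 1% E. coli HB101 and antibiotic/antimycotic, exposed to six 3-fold dilutions from 70 μM down to 0.3 μM (1.4% DMSO at top). Held at 20° C; viability scored visually under 100× dissecting microscope on day 5.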

## CCCCCCCCCCNc1nsc(N(C)CCc2ccccc2)n1 [compound 283]
  Follow-up HTS Run % Run: 120%
  Follow-up HTS Run Visual Score: Dead
  Follow-up HTS Run mOD: 193 mOD
  Initial HTS Run % Run: 131%
  Initial HTS Run Visual Score: Dead
  Initial HTS Run mOD: 144 mOD
  5 Day Visual Score V1: Dead
  5 Day Visual Score V2: Dead
  5 Day Visual Score V4: OK (no effect (˜1000+ progeny))
  5 Day Visual Score V5: OK (no effect (˜1000+ progeny))
  5 Day Visual Score V6: OK (no effect (˜1000+ progeny))

## CCCCCCCCCCNc1nsc(N(C)Cc2ccccc2)n1 [compound 284]
  Follow-up HTS Run % Run: 122%
  Follow-up HTS Run Visual Score: Dead
  Follow-up HTS Run mOD: 196 mOD
  Initial HTS Run % Run: 142%
  Initial HTS Run Visual Score: Dead
  Initial HTS Run mOD: 156 mOD
  5 Day Visual Score V1: Dead
  5 Day Visual Score V2: Dead
  5 Day Visual Score V3: Dead
  5 Day Visual Score V4: ˜B (moderate broodsize (100-250 progeny))
  5 Day Visual Score V5: OK (no effect (˜1000+ progeny))
  5 Day Visual Score V6: OK (no effect (˜1000+ progeny))

## CCCCCCCCCCNc1nsc(N(C)CCc2ccc(OC)c(OC)c2)n1 [compound 285]
  Follow-up HTS Run % Run: 131%
  Follow-up HTS Run Visual Score: Dead
  Follow-up HTS Run mOD: 211 mOD
  Initial HTS Run % Run: 149%
  Initial HTS Run Visual Score: Dead
  Initial HTS Run mOD: 164 mOD
  5 Day Visual Score V1: Dead
  5 Day Visual Score V2: Dead
  5 Day Visual Score V4: ˜B (moderate broodsize (100-250 progeny))
  5 Day Visual Score V5: OK (no effect (˜1000+ progeny))
  5 Day Visual Score V6: OK (no effect (˜1000+ progeny))

## Cc1cccc(C)c1N1CCN(c2nc(NCCC(c3ccccc3)c3ccccc3)ns2)CC1 [compound 287]
  Follow-up HTS Run % Run: 88%
  Follow-up HTS Run mOD: 142 mOD
  Initial HTS Run % Run: 128%
  Initial HTS Run mOD: 141 mOD
  5 Day Visual Score V1: Dead
  5 Day Visual Score V2: B (low broodsize (25-100 progeny))
  5 Day Visual Score V4: OK (no effect (˜1000+ progeny))
  5 Day Visual Score V5: OK (no effect (˜1000+ progeny))
  5 Day Visual Score V6: OK (no effect (˜1000+ progeny))

## CCCCCCCCCCCCCCCCCCN(C)c1nc(NCCC(c2ccccc2)c2ccccc2)ns1 [compound 288]
  Follow-up HTS Run % Run: 82%
  Follow-up HTS Run Visual Score: L4/AD/B!
  Follow-up HTS Run mOD: 132 mOD
  Initial HTS Run % Run: 105%
  Initial HTS Run Visual Score: L3/L4/1AD/B
  Initial HTS Run mOD: 116 mOD
  5 Day Visual Score V1: L1
  5 Day Visual Score V2: B (low broodsize (25-100 progeny))
  5 Day Visual Score V3: OK (no effect (˜1000+ progeny))
  5 Day Visual Score V4: OK (no effect (˜1000+ progeny))
  5 Day Visual Score V5: OK (no effect (˜1000+ progeny))
  5 Day Visual Score V6: OK (no effect (˜1000+ progeny))

## C=CCN(CC=C)c1nc(NCCC(c2ccccc2)c2ccccc2)ns1 [compound 289]
  Follow-up HTS Run % Run: 86%
  Follow-up HTS Run mOD: 139 mOD
  Initial HTS Run % Run: 104%
  Initial HTS Run Visual Score: L4/AD/B
  Initial HTS Run mOD: 114 mOD
  5 Day Visual Score V2: ˜B (moderate broodsize (100-250 progeny))
  5 Day Visual Score V3: OK (no effect (˜1000+ progeny))
  5 Day Visual Score V4: OK (no effect (˜1000+ progeny))
  5 Day Visual Score V5: OK (no effect (˜1000+ progeny))
  5 Day Visual Score V6: OK (no effect (˜1000+ progeny))

## CCOC(=O)CCN(Cc1ccccc1)c1nc(NCCC(c2ccccc2)c2ccccc2)ns1 [compound 290]
  Follow-up HTS Run % Run: 99%
  Follow-up HTS Run Visual Score: L4/AD/B
  Follow-up HTS Run mOD: 159 mOD
  Initial HTS Run % Run: 101%
  Initial HTS Run Visual Score: L4/AD/B
  Initial HTS Run mOD: 111 mOD
  5 Day Visual Score V1: Dead
  5 Day Visual Score V3: OK (no effect (˜1000+ progeny))
  5 Day Visual Score V4: OK (no effect (˜1000+ progeny))
  5 Day Visual Score V5: OK (no effect (˜1000+ progeny))
  5 Day Visual Score V6: OK (no effect (˜1000+ progeny))

## CCCCN(Cc1ccccc1)c1nc(NCc2ccc(F)cc2F)ns1 [compound 291]
  Follow-up HTS Run % Run: 137%
  Follow-up HTS Run Visual Score: B! (sterile (0-25 progeny))
  Follow-up HTS Run mOD: 220 mOD
  Initial HTS Run % Run: 136%
  Initial HTS Run mOD: 150 mOD
  5 Day Visual Score V1: L4#AD/B!
  5 Day Visual Score V2: OK (no effect (˜1000+ progeny))
  5 Day Visual Score V3: OK (no effect (˜1000+ progeny))
  5 Day Visual Score V4: OK (no effect (˜1000+ progeny))
  5 Day Visual Score V5: OK (no effect (˜1000+ progeny))
  5 Day Visual Score V6: OK (no effect (˜1000+ progeny))

## CCN(Cc1ccccc1)c1nc(NCc2ccc(F)cc2F)ns1 [compound 292]
  Follow-up HTS Run % Run: 116%
  Follow-up HTS Run Visual Score: L4/AD/B!
  Follow-up HTS Run mOD: 187 mOD
  Initial HTS Run % Run: 110%
  Initial HTS Run mOD: 121 mOD
  5 Day Visual Score V2: ˜B (moderate broodsize (100-250 progeny))
  5 Day Visual Score V3: OK (no effect (˜1000+ progeny))
  5 Day Visual Score V4: OK (no effect (˜1000+ progeny))
  5 Day Visual Score V5: OK (no effect (˜1000+ progeny))
  5 Day Visual Score V6: OK (no effect (˜1000+ progeny))

## C=CCN(CC=C)c1nc(NCc2ccc(F)cc2F)ns1 [compound 293]
  Follow-up HTS Run % Run: 125%
  Follow-up HTS Run Visual Score: L4/AD/B!
  Follow-up HTS Run mOD: 201 mOD
  Initial HTS Run % Run: 108%
  Initial HTS Run Visual Score: L4
  Initial HTS Run mOD: 119 mOD
  5 Day Visual Score V2: < (reduced broodsize (250-500 progeny))
  5 Day Visual Score V3: OK (no effect (˜1000+ progeny))
  5 Day Visual Score V4: OK (no effect (˜1000+ progeny))
  5 Day Visual Score V5: OK (no effect (˜1000+ progeny))
  5 Day Visual Score V6: OK (no effect (˜1000+ progeny))

## CN(CCc1ccccc1)c1nc(NCc2ccc(F)cc2F)ns1 [compound 294]
  Follow-up HTS Run % Run: 116%
  Follow-up HTS Run Visual Score: B! (sterile (0-25 progeny))
  Follow-up HTS Run mOD: 187 mOD
  Initial HTS Run % Run: 108%
  Initial HTS Run Visual Score: L4/AD/B!-Few Eggs
  Initial HTS Run mOD: 119 mOD
  5 Day Visual Score V3: OK (no effect (˜1000+ progeny))
  5 Day Visual Score V4: OK (no effect (˜1000+ progeny))
  5 Day Visual Score V5: OK (no effect (˜1000+ progeny))
  5 Day Visual Score V6: OK (no effect (˜1000+ progeny))

## CN(Cc1ccccc1)c1nc(NCc2ccc(F)cc2F)ns1 [compound 295]
  Follow-up HTS Run % Run: 128%
  Follow-up HTS Run Visual Score: B! (sterile (0-25 progeny))
  Follow-up HTS Run mOD: 206 mOD
  Initial HTS Run % Run: 121%
  Initial HTS Run Visual Score: L4/AD/B!-Few Eggs
  Initial HTS Run mOD: 133 mOD
  5 Day Visual Score V2: B (low broodsize (25-100 progeny))
  5 Day Visual Score V3: B (low broodsize (25-100 progeny))
  5 Day Visual Score V4: OK (no effect (˜1000+ progeny))
  5 Day Visual Score V5: OK (no effect (˜1000+ progeny))
  5 Day Visual Score V6: OK (no effect (˜1000+ progeny))
